# From patent US20160207994A1, “MODULATORS OF IL-12 AND/OR IL-23 FOR THE PREVENTION OR TREATMENT OF ALZHEIMER'S DISEASE” (UNIVERSITAT ZURICH, priority 2011, published 2016)
# Legend:
# [1] = system: IL-6, IL-1β IL-23 and TNF-a; details: cited from earlier work
# IL-12/p40 = details: cited from earlier work
# [2] = system: isolated postnatal microglial cell cultures; experiment: Cytokine gene expression in microglial cell cultures treated with synthetic Aβ1-42; format: cell-based; details: 22.5 μg/ml
# Protocol: Treatment of isolated postnatal microglial cell cultures with synthetic Aβ1-42 peptides (22.5 μg/ml) induced an almost 6-fold upregulation of IL-12/IL-23p40 after 24 h when compared to unstimulated controls (FIG. 1c).
# Since both in human AD samples as well as in transgenic AD mice, microglia and macrophages surrounding Aβ-plaques are reported to be a major source of inflammatory cytokines, we FACS sorted myeloid brain cells of Alzheimer mice in order to better characterize this inflammatory component. Initially, we assessed the expression of IL-12, IL-23 and TNFα in 4-month-old APPPS1 animals and age matched non-transgenic littermates by quantitative PCR of the two cellular fractions obtained (CD45^+ CD11b^+ and CD45^− CD11b^−). […] In contrast, we observed a robust upregulation of IL-12/IL-23p40 and IL-23p19 in the double positive fraction containing microglia and brain macrophages of APPPS1 mice compared to age-matched littermate controls (FIG. 1b). […] To validate a potential link between IL-12 and IL-23 subunits and Aβ-pathology in APPPS1 transgenic animals—besides their impact in models of CNS autoimmune disease, IL-12/IL-23 have not been described to play a role in neurodegenerative diseases so far—as well as to test, whether inhibition of IL-12 and IL-23 subunits could alter disease progression in AD mice, genetic and applied experiments targeting IL-12 and IL-23 subunits in AD mice were performed.
compound,measurement,setting,value
"CC/C=C\C[C@H](O)C(O)/C=C/C=C/C=C\C=C\[C@@H](O)C/C=C\CCC(=O)O (stereo partly drawn) [Resolvin D2, (7S, 17S)-7, 16, 17-trihydroxydocosa-4,8, 10, 12, 14, 19-hexaenoic acid]","levels of proinflammatory cytokines, namely IL-6, IL-1β IL-23 and TNF-a",[1],drastically reduces
"CC[C@@H](O)/C=C/C=C\C[C@@H](O)/C=C/C=C/C=C\[C@@H](O)CCCC(=O)O [Resolvin E1, (5S, 12R, 18R)-5, 12, 18-trihydroxyicosa-6,8, 10, 14, 16-pentaenoic acid]","proinflammatory gene expression, i. a. IL-12/p40",IL-12/p40,dramatically decreases
Aβ1-42 peptides: synthetic Aβ1-42 peptides used to stimulate microglial cell cultures,upregulation of IL-23p19,[2],substantial upregulation
same,upregulation of TNFα,[2],substantial upregulation
same,upregulation of IL-12/IL-23p40 over unstimulated controls,[2]; 24 h,~6 fold
